Laboratory results published in patent US20030236212A1, “Functionalized long chain derivatives as acyl coenzyme-A mimics, compositions thereof, and methods of cholesterol management and related uses” (priority 2002, published 2003).

How the values were obtained:
primary rat hepatocytes = experiment: Synthesis of total lipids (14C-acetate labeling) in primary rat hepatocytes; assay type: cell-based; details: for IC50: Rattus norvegicus, Hepatocyte, read-out: IC50, inhibition of lipid synthesis in primary hepatocytes
Protocol: A male Sprague-Dawley rate was anesthetized by administration of sodium pentobarbitol by intraperitoneal at 80 mg/kg. In situ perfusion of the liver was performed as follows. The abdomen of the animal was opened, the portal vein canulated, and the liver perfused with WOSH solution (149 mM NaCl, 9.2 mM Na HEPES, 1.7 mM Fructose, 0.5 mM EGTA, 0.029 mM Phenol red, 10 U/ml heparin, pH 7.5) at a flow rate of 30 ml/min for 6 minutes. To digest the liver, DSC solution (6.7 mM KCl, 143 mM NaCl, 9.2 mM Na HEPES, 5 mM CaCl2-2H2O, 1.7 mM Fructose, 0.029 mM Phenol red, 0.2% BSA, 100 U/ml collagenase Type 1,160 BAEE/ml trypsin inhibitor, pH 7.5) was perfused through the liver at a flow rate of 30 ml/min for 6 minutes at a temperature of 37° C. After digestion, cells were dispersed in a solution of DMEM-(DMEM containing 2 mM GlutMax-1, 0.2% BSA, 5% FBS, 12 nM insulin, 1.2 μM hydrocortisone) to stop the digestion process. The crude cell suspension was filtered through three layers of stainless steel mesh with pore sizes of 250, 106, and 75 μm respectively. Filtered cells were centrifuged at 50×g for two minutes and the supernatant discarded. The resulting cell pellet was resuspended in DMEM and centrifuged again. This final cell pellet was resuspended in DMEM+HS solution (DMEM containing 2 mM GlutMax-1, 20 mM delta-aminolevulinic acid, 17.4 mM MEM nonessential amino acids, 20% FBS, 12 nM insulin, 1.2 μM hydrocortisone) and plated to form monolayer cultures at a density of 100×10^3 cells/cm^2 on collagen coated culture dishes.
To test the effect of an illustrative compound of the invention on synthesis rates of total lipids, the monolayer cultures were exposed to 1, 3, 10, 30, 100, or 300 μM of Compound A or 10 μM of Compound 1 in DMEM+containing 1 μCi/ml 14C-acetate, D-glucose, hepes, glutamine, leucine, alanine, lactate, pyruvate, non-essential amino acids, BSA, and gentamicine. Control cells were exposed to the same media lacking lovastatin or the test compounds. All cells were exposed to 0.1% DMSO. Metabolic labeling with ^14C-acetate continued for 4 hr at 37° C. After labeling, cells were washed twice with 1 mL of PBS followed by addition of scintallant (Microscent E) and counted on Topcount®.

obese female Zucker rats = experiment: Oral daily treatment of obese female Zucker rats for 14 days (body weight, serum lipids, glucose, insulin); assay type: in vivo, rat; design: HDL-C / Glucose / Insulin / NEFA / BHA / TG / TC / Non HDL-C: unit not given here
Protocol: The dosing vehicle was administered to control animals in parallel experiments.
Body weight was determined daily prior to dosing. Animals were allowed free access to rodent chow and water throughout the study. Blood glucose was determined after a 6-hour fast in the afternoon without anesthesia from a tail vein. Serum was also prepared from a blood sample subsequently obtained from the orbital venous plexus (with O2/CO2 anesthesia) prior to and after one week treatment and used lipid and insulin determinations. At two weeks, blood glucose was again determined after a 6-hour fast without anesthesia from a tail vein. Soon thereafter, animals were sacrificed by CO2 inhalation in the afternoon and cardiac blood serum was collected and assessed for various lipids and insulin.

[1] = obese female Zucker rats, oral gavage daily 14 days, 5 mg/kg
[2] = obese female Zucker rats, oral, 14 days, 100 mg/kg/day (Table 1)

**Q.** Which IC50 (primary rat hepatocytes) does the source give for `CC(C)(CCCCOCCCCC(C)(C)COP(=O)(O)O)COP(=O)(O)O` here?
**A.** 43 µM

**Q.** With `CC(C)(CCCCC(=O)CCCCC(C)(C)COP(=O)(O)O)COP(=O)(O)O` as the compound, how does the IC50 (primary rat hepatocytes) read?
**A.** 16 µM

**Q.** With `CC(C)(CCCCCOCCCCCC(C)(C)COP(=O)(O)O)COP(=O)(O)O` as the compound, how does the IC50 (primary rat hepatocytes) read?
**A.** 28 µM

**Q.** Which IC50 (primary rat hepatocytes) does the source give for `CC(C)(CCCCCC(=O)CCCCCC(C)(C)COP(=O)(O)O)COP(=O)(O)O` here?
**A.** 35 µM

**Q.** For `CC(C)(CO)CCCCOCCCCC(C)(C)CO` [Compound 1, bis(6-Hydroxy-5,5-dimethylhexyl)ether, reference compound], which blood glucose levels (obese female Zucker rats; fasted obese female Zucker rats, oral gavage daily 14 days, 5 mg/kg) is on record?
**A.** reduction

**Q.** What about the “serum insulin relative to pretreatment” value (obese female Zucker rats; fasted obese female Zucker rats, two weeks of treatment, 5 mg/kg) of the same compound?
**A.** increased

**Q.** And the “liver to body weight” value (obese female Zucker rats; [1])?
**A.** increased

**Q.** What about the serum total cholesterol (obese female Zucker rats; [1]) of the same compound?
**A.** only modestly elevated

**Q.** What about the “weight gain, percent of initial weight after two weeks” value (obese female Zucker rats; [1]) of the same compound?
**A.** 1.5%

**Q.** And the BHA (obese female Zucker rats; [2])?
**A.** 1.6 ± 0.3

**Q.** And the Glucose (obese female Zucker rats; [2])?
**A.** −25.3 ± 7.2

**Q.** And the HDL-C (obese female Zucker rats; [2])?
**A.** 113.9 ± 26.4

**Q.** And the Insulin (obese female Zucker rats; [2])?
**A.** 42.1 ± 23

**Q.** And the NEFA (obese female Zucker rats; [2])?
**A.** 0.056 ± 0.002

**Q.** What about the “Non HDL-C” value (obese female Zucker rats; [2]) of the same compound?
**A.** −26.9 ± 9.3

**Q.** And the TC (obese female Zucker rats; [2])?
**A.** −82.5 ± 3.6

**Q.** And the TG (obese female Zucker rats; [2])?
**A.** 468.8 ± 139.7

**Q.** What about the “reduction of rates of total lipid synthesis” value (primary rat hepatocytes; rat hepatocyte cells, 10 μM, 14C-acetate 4 hr, vs vehicle control) of the same compound?
**A.** at least 65%

**Q.** Which melting point does the source give for `CC(=O)C(CCCCC(C)(C)CO)CCCCC(C)(C)CO` [Compound G, 9-Hydroxy-3-(6-hydroxy-5,5-dimethylhexyl)-8,8-dimethylnonan-2-one] here?
**A.** 178 to 180 °C

**Q.** With `CC(C)(CO)CCCCN(O)CCCCC(C)(C)CO` [Compound I] as the compound, how does the melting point read?
**A.** 73 °C

**Q.** For `CC(=O)C(CCCCC(C)(C)CO)CCCCC(C)(C)CO` [drawing 124], which IC50 (primary rat hepatocytes) is on record?
**A.** 62 µM

**Q.** With `CC(C)(CO)CCCCN(O)CCCCC(C)(C)CO` [drawing 125] as the compound, how does the IC50 (primary rat hepatocytes) read?
**A.** 64 µM

**Q.** For `CC(C)(CO)CCCCOC(=O)CCCCC(C)(C)CO` [drawing 126], which IC50 (primary rat hepatocytes) is on record?
**A.** 14 µM
